The target in one experiment is T1, protein kinase D2 (PKD2) (Homo sapiens, UniProt Q9BZL6).
T1 construct: This assay is performed with full length wild-type enzyme purchase from Invitrogen; purchased Invitrogen
T1 sequence (Q9BZL6 1-878): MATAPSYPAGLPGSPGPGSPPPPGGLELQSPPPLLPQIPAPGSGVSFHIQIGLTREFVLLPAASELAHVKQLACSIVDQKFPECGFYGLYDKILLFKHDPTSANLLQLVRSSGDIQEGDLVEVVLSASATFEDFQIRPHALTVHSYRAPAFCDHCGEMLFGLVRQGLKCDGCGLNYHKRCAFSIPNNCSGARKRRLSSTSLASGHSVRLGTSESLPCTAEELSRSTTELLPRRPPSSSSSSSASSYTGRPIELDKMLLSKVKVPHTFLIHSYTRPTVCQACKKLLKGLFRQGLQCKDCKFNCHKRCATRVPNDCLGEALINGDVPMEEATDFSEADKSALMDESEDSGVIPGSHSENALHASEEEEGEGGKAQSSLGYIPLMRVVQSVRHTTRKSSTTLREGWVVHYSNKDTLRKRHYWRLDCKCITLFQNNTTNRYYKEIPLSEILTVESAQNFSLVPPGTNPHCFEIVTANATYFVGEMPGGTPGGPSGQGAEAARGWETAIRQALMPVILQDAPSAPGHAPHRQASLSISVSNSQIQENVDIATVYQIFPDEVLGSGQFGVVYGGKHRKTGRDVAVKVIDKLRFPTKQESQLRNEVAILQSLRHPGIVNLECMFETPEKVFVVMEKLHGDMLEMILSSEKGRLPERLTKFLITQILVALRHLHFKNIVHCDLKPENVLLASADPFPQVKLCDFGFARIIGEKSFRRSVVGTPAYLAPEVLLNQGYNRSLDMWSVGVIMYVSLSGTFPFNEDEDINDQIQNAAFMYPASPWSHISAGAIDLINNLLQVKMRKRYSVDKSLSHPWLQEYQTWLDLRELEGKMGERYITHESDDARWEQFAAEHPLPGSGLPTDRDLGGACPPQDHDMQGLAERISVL
Description: PKD2 TR-FRET (LANCE) kinase assay. As to conditions: full length wild-type enzyme, 20 μM ATP, syntide-2 substrate; read-out: Inhibitory Activity PKD2. Format: biochemical. From the text:
(§1) The assay to measure protein kinase D2 (PKD2) activity is a time-resolved fluorescence resonance transfer (TR-FRET) assay using PerkinElmer's LANCE™ technology. In this case, a biotinylated syntide-2 peptide is used as the substrate in this reaction. Phosphorylation of the syntide-2 substrate is detected by a specific antibody that recognizes the phosphorylated peptide. A second fluorophore, APC, is conjugated to streptavidin that binds the biotinylated syntide-2 peptide. […] Therefore, when the europium labeled secondary antibody binds on the phosphorylated peptide, it is brought into close contact with the APC and excites this fluorophore.
(§2) This assay is performed with full length wild-type enzyme purchase from Invitrogen. The reaction buffer consists of 35 mM Tris-HCl pH7.5, 5 mM MgCl2, 0.02% Tween-20, 20 μM ATP, 1 mM DTT and 0.2 μg/mL PKD2 enzyme. The enzyme reaction is initiated by the addition of 2 μM syntide-2 peptide substrate and the reaction carried out for 50 minutes at room temperature. The reaction is stopped by a stop/detection Buffer consisting of 50 mM EDTA, 0.18 mg/mL rabbit polyclonal anti-phospho Syntide-2 antibody, 0.5 nM europium labeled anti-rabbit IgG and 10 nM streptavidin conjugated APC. After a one hour incubation with the stop/detection buffer, the reaction is read on an Envision 2100 Reader using a LANCE™ Eu/APC dual protocol. […] IC50 values are calculated using an Activity Base (IDBS) software program.

A further experiment concerns the target T2, protein kinase D1 (PKD1) (Homo sapiens, UniProt Q15139).
T2 construct: This assay is performed with full length wild-type enzyme that is expressed and purified from Sf9 insect cells; made in house; host or cells: Sf9 insect cells
T2 sequence (Q15139 1-912): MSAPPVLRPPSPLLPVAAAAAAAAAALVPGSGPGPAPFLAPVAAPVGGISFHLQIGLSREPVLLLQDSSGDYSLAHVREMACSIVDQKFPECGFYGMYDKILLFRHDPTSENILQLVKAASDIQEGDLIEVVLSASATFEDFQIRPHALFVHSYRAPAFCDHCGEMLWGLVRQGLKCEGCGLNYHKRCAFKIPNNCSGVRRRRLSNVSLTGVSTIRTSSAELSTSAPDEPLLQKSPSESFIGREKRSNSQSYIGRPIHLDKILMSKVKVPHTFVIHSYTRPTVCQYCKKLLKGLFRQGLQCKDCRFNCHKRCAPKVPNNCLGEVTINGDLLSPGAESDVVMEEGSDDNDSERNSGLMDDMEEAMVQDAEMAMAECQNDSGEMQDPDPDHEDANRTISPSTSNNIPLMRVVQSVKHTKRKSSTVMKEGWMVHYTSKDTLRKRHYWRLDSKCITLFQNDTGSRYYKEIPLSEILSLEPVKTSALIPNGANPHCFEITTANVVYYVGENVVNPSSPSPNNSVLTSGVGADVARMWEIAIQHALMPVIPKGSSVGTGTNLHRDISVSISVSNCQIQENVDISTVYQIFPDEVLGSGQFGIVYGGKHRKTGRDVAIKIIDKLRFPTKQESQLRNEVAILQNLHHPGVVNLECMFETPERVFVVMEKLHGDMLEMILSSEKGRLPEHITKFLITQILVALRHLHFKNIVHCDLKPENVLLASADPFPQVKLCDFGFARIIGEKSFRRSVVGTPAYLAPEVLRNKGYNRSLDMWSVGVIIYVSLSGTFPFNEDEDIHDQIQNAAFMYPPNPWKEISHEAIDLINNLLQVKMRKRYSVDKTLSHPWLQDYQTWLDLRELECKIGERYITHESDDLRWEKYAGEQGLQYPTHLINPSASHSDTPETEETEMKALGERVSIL
The experiment in a line: PKD1 TR-FRET (LANCE) kinase assay. Format: biochemical. As to conditions: full length wild-type enzyme, 20 μM ATP, syntide-2 substrate; read-out: Inhibitory Activity PKD1.
Text: as §1, with “D1 (PKD1)” for “D2 (PKD2)”
as §2, with “that is expressed and purified” for “purchase”, “Sf9 insect cells.” for “Invitrogen.”, “PKD1” for “PKD2”, “APC.” for “APC. After a one hour incubation with the stop/detection buffer, the reaction is read on an Envision 2100 Reader using a LANCE™ Eu/APC dual protocol.”

The test system of experiment [1] is agonist-dependent nuclear export of HDAC5. The experiment in a line: HDAC5 nuclear export assay (GFP-HDAC5, Cellomics imaging). It counts as cell-based. The note with it: Rattus norvegicus, Ventricular myocyte, 2 h, read-out: Inhibitory Activity HDAC. The method, then: Compounds are evaluated in the HDAC5 nuclear export assay, a 384-well plate-based assay that enables high throughput screening (HTS) to identify small molecules that block agonist-dependent nuclear export of HDAC5. […] Neonatal rat ventricular myocytes (NRVMs) are infected with GFP-HDAC5 encoding virus and plated on gelatin-coated 384-well dishes. […] Following two hours of stimulation, cells are fixed and GFP-HDAC5 localization quantified using the Cellomics system, which provides a read-out of relative fluorescence intensity in the cytoplasmic versus nuclear compartment.

In a further experiment the target is T3, protein kinase D3 (PKD3) (Homo sapiens, UniProt O94806).
T3 construct: This assay is performed with full length wild-type enzyme that is purchased from Invitrogen; purchased Invitrogen
T3 sequence (O94806 1-890): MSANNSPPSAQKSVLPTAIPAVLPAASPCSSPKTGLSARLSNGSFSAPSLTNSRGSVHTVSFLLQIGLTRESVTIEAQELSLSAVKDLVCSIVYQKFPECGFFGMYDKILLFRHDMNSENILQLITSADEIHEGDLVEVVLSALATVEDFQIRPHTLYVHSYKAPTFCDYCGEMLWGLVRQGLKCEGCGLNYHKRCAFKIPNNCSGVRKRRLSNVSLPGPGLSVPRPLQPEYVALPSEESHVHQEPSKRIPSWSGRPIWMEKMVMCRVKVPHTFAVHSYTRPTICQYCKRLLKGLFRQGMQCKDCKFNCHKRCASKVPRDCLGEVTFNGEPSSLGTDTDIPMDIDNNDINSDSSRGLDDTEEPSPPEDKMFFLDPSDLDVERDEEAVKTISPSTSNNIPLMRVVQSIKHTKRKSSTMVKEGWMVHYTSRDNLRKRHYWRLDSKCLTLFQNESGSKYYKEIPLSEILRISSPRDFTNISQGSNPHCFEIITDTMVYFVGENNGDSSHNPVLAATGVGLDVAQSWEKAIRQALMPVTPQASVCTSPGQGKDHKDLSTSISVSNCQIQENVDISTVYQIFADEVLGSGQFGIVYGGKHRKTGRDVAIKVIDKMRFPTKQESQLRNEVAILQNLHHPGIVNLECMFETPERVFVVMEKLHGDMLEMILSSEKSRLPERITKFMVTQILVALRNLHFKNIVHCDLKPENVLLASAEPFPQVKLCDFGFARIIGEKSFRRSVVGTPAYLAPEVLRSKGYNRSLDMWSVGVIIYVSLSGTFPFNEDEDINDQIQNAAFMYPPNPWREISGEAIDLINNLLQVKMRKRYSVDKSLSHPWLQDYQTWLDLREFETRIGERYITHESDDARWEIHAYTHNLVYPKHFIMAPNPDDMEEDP
The experiment in a line: PKD3 TR-FRET (LANCE) kinase assay. It counts as biochemical. The note with it: full length wild-type enzyme, 20 μM ATP, syntide-2 substrate; read-out: Inhibitory Activity PKD3.
Text: as §1, with “D3 (PKD3)” for “D2 (PKD2)”
as §2, with “that is purchased” for “purchase”, “PKD3” for “PKD2”, “buffer” for “Buffer”
In general terms: In TR-FRET formats the signal depends on donor and acceptor labels being close together.

Like-named read-outs stand apart in the source and are kept apart here.

Turning to `Cn1ccc(Nc2cc(-c3cc(C#N)cc(N4CCNCC4)n3)ccn2)n1` [2′-(1-Methyl-1H-pyrazol-3-ylamino)-6-piperazin-1-yl-[2,4′]bipyridinyl-4-carbonitrile], the IC50 on protein kinase D2 (PKD2) was 76 nM; on protein kinase D1 (PKD1) it was 8 nM; in experiment [1] (neonatal rat ventricular myocytes, PGF2α stimulation, two hours) it was greater than 1000 nM.

Regarding `C[C@@H]1CN(c2cc(C(N)=O)cc(-c3ccnc(NC4CCCCC4)c3)n2)CCN1` [2′-Cyclohexylamino-6-((R)-3-methylpiperazin-1-yl)-[2,4′]bipyridinyl-4-carboxylic acid amide], the IC50 at protein kinase D2 (PKD2) came out at 60 nM; at protein kinase D1 (PKD1) it was 6 nM; in experiment [1] it was 679 nM.

For `CC(C)Nc1cc(-c2cc(-c3cn[nH]c3)cc(N3CCNCC3)n2)ccn1` [iso-Propyl-[6-piperazin-1-yl-4-(1H-pyrazol-4-yl)-[2,4′]bipyridinyl-2′-yl]-amine], the IC50 at protein kinase D2 (PKD2) is 3 nM; on protein kinase D3 (PKD3) it was less than 1 nM; in experiment [1] it was 92 nM.

The values are drawn from patent US20110092505A1, “ORGANIC COMPOUNDS” (priority 2008, published 2011).
